Experimental data reported in patent publication US4496551A (priority 1983, dated 1985).

Columns and labels:
Helminthosporium maydis = assay: southern corn leaf blight control on corn seedlings; type: in vivo; settings: Bipolaris maydis, 168 h
Method in brief: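 Corn seedlings were sprayed to run-off with 100 ppm compound (6% acetone, 250 ppm TREM 014), inoculated next day with H. maydis spores, then kept 24 h at 20° in saturated humidity and 7 more days in a growth room. Lesions were rated as disease score.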

Rhizoctonia solani = assay: rice sheath blight control on rice seedlings; type: in vivo; settings: Rhizoctonia solani, 168 h, 7 days
Method in brief: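 Rice seedlings sprayed to run-off with 100 ppm compound suspension (6% acetone, 250 ppm surfactant), then inoculated next day with bran/mycelium of Rhizoctonia solani. After 7 days in a growth room, sheath blight disease was rated.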

Pythium aphanadermatum [1] = assay: Pythium control on coated corn seeds; type: in vivo; settings: 504 h, 2 gm/kg seed, 49° F. 2 weeks then 70° F. 1 week
Method: Several compounds of the previous examples were incorporated into a proprietary formulation and used to coat corn seeds at a rate of 2 gm/kg seed. After being thoroughly coated, the seeds were allowed to air dry at room temperature. The seeds were then planted into soil amended with a mixture of the fungus Pythium aphanadermatum, sand, and corn meal at a rate sufficient to kill most untreated seeds. The seeds were held at 49° F. for 2 weeks and then at 70° F. for 1 additional week. After this time disease ratings were made.

Erysiphe graminis = assay: barley powdery mildew control on barley seedlings; type: in vivo; settings: Blumeria graminis, 168 h; 100 ppm, 7 days
Method: Several compounds of the previous examples were again dissolved in acetone in an amount equal to 6% of the final volume and then suspended at a concentration of 100 ppm in purified water containing 250 ppm of the surfactant TREM 014 (polyhydric alcohol esters). This suspension was sprayed to the point of run-off on barley seedlings. The following day, the plants were inoculated with a spore suspension of the fungus Erysiphe graminis, causal agent of barley powdery mildew, and incubated in a growth room for 7 days. Disease ratings were then made. Treated plants had little or no powdery mildew in contrast to untreated plants which were covered with powdery mildew.

Pyricularia oryzae = assay: whole plant or invertebrate; type: in vivo; settings: 168 h, read-out: % Control of Rice Blast
Erysiphe cichoracearum = assay: cucumber powdery mildew control on cucumber seedlings; type: in vivo; settings: Golovinomyces cichoracearum, 168 h, 7 days
Method in brief: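 Compounds at 100 ppm in water with 6% acetone and 250 ppm TREM 014 surfactant, sprayed to run-off on cucumber seedlings. Inoculation with Erysiphe cichoracearum spores the following day; disease rated after 7 days in a growth room against untreated plants.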

[2] = tested on: Puccinia recondita var. tritici; assay: wheat leaf rust control on wheat seedlings; type: in vivo; settings: 100 ppm, sprayed day before inoculation
Method in brief: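 Compounds at 100 ppm (6% acetone, 250 ppm polyhydric alcohol ester surfactant in water) sprayed to run-off on wheat seedlings; inoculated next day with P. recondita spores. Kept 24 h at saturated humidity, 20°, then 7 days in growth room before rust pustule rating.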

Venturia inaequalis = assay: apple scab control on apple seedlings; type: in vivo; settings: Venturia inaequalis; 100 ppm
Method in brief: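 Apple seedlings sprayed to run-off with 100 ppm compound suspension (6% acetone, 250 ppm TREM 014 surfactant). Inoculated next day with Venturia inaequalis spores; 24 hours at 20° in saturated humidity, then 10-12 days in growth room. Scab lesions compared with untreated plants.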

Cercospora arachidicola = assay: peanut early leafspot control on peanut seedlings; type: in vivo; settings: Mycosphaerella arachidis, 336 h
Method in brief: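 Compounds dissolved in acetone (6% of final volume) and suspended at 100 ppm in water with 250 ppm TREM 014, sprayed to run-off on seedlings. Cercospora arachidicola inoculated next day; 24 h saturated humidity at 27°, then 14 days growth room before disease and leafspot rating.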

Phytophthora infestans = assay: whole plant or invertebrate; type: in vivo; settings: Phytophthora infestans, in Solanum lycopersicum, 168 h, read-out: % Control of Tomato Late Blight
cucumber seedlings = assay: phytotoxicity on cucumber seedlings; type: in vivo; parameters: key: G: growth reduction; H: hormonal effects; settings: 100 ppm
Pythium aphanadermatum [3] = assay: Pythium control on coated cotton seeds; type: in vivo; settings: 168 h; for pest or weed control at 2000 mg/kg: 2 gm/kg seed, 1 week
Source text: Several compounds of the previous examples were incorporated into a proprietary formulation and used to coat cotton seeds at a rate of 2 gm/kg seed. After being thoroughly coated, the seeds were allowed to air dry at room temperature. The cotton seeds were then planted into soil amended with the fungus Pythium aphanadermatum, sand, and corn meal at a rate sufficient to kill most untreated seeds. The seeds were held at room temperature for 1 week, after which time disease ratings were made.

5 Phytophthora species = type: cell-based; settings: 200.0 ppm in agar, 22° C., 6 days; controlled = radial growth 1 mm or less
Monilinia fructicola = assay: stone fruit brown rot colony growth inhibition on canned peach halves; type: cell-based; settings: 120 h, dipped 3 minutes, five days, percent growth inhibition of colonies, read-out: % Control Brown Rot
Source text: Several compounds of the previous examples were again dissolved in acetone in an amount equal to 5% of the final volume and then suspended at a concentration of 100 ppm in purified water containing 700 ppm of the surfactant TREM 014 (polyhydric alcohol esters). Canned peach halves were dipped in this suspension for three minutes and then placed to air dry in sterile containers. Upon drying, the peach halves were inoculated with two pieces of Monilinia fructicola, causal agent of stone fruit brown rot, mycelium and then incubated in the sterile containers for five days. At that time the radii of the colonies' growth were measured on each peach. […] Percent disease contol (percent growth inhibition of colonies on treated peaches as compared to that of colonies on untreated peaches) is expressed in the table below.

| Compound | pest or weed control at 100 ppm (Helminthosporium maydis) | pest or weed control at 100 ppm (Rhizoctonia solani) | pest or weed control at 2000 mg/kg (Pythium aphanadermatum [1]) | pest or weed control at 100 ppm (Erysiphe graminis) | pest or weed control at 100 ppm (Pyricularia oryzae) | pest or weed control at 100 ppm (Erysiphe cichoracearum) | pest or weed control at 100 ppm [2] | pest or weed control at 100 ppm (Venturia inaequalis) | pest or weed control at 100 ppm (Cercospora arachidicola) | pest or weed control at 100 ppm (Phytophthora infestans) | Phytotoxicity (growth reduction or hormonal effects) (cucumber seedlings) | pest or weed control at 2000 mg/kg (Pythium aphanadermatum [3]) | No. of 5 Phytophthora species controlled in vitro (5 Phytophthora species) | inhibition of growth at 100 ppm (Monilinia fructicola) | pest or weed control at 500 mg/kg (Pythium aphanadermatum [3]; 0.5 gm/kg seed) |
| --- | --- | --- | --- | --- | --- | --- | --- | --- | --- | --- | --- | --- | --- | --- | --- |
| C[Si](C)(Cn1ccnc1)c1cccc2ccccc12 [(1H-Imidazol-1-ylmethyl)dimethyl(1-naphthalenyl)silane] | 0% | 0% | 27% | 0% | 0% | 100% | 0% | 40% | 0% | 0% | – | – | – | – | – |
| Cc1ccc([Si](C)(C)Cn2ccnc2)cc1 [(1H-Imidazol-1-ylmethyl)dimethyl(4-methylphenyl)silane] | 0% | 0% | 30% | – | 0% | 100% | 0% | 0% | 0% | 0% | G | 0% | – | – | – |
| C[Si](C)(Cn1ccnc1)c1ccc(Oc2ccccc2)cc1 [(1H-Imidazol-1-ylmethyl)dimethyl(4-phenoxyphenyl)silane] | 0% | 70% | 5% | 0% | 70% | 100% | 60% | 100% | 0% | 80% | – | 0% | 4 | 80% | – |
| C[Si](C)(Cn1ccnc1)c1ccc(Cl)c(Cl)c1 [(3,4-Dichlorophenyl)(1H-imidazol-1-ylmethyl)dimethylsilane] | 70% | 0% | 30% | 80% | 0% | 100% | 0% | 80% | 0% | 0% | – | – | – | – | 15% |
| C[Si](Cn1ccnc1)(c1ccccc1)c1ccc(Cl)cc1 (centres unmarked) [(4-Chlorophenyl)(1H-imidazol-1-ylmethyl)methyl(phenyl)silane] | 0% | 0% | – | – | 0% | 100% | 100% | 100% | 100% | 0% | – | – | 0 | 45% | – |
| C[Si](Cn1ccnc1)(c1ccccc1)c1ccc(F)cc1 (centres unmarked) [(4-Fluorophenyl)(1H-imidazol-1-ylmethyl)methyl(phenyl)silane] | 80% | 90% | – | – | 100% | 100% | 0% | 100% | 100% | 0% | – | – | 2 | 65% | – |
| CCCC[Si](C)(Cn1ccnc1)c1ccc(Cl)cc1 (centres unmarked) [Butyl(4-chlorophenyl)(1H-imidazol-1-ylmethyl)methylsilane] | 50% | 0% | 0% | 100% | 0% | 100% | 90% | 90% | 0% | 0% | G | 0% | – | 45% | – |
| COc1ccc([Si](C)(C)Cn2ccnc2)cc1 [Dimethyl(1H-imidazol-1-ylmethyl)(4-methoxyphenyl)silane] | 0% | 0% | – | 100% | 0% | 100% | 60% | 0% | 0% | 0% | – | – | 0 | – | – |
| C[Si](C)(Cn1ccnc1)c1ccc(OC(F)(F)F)cc1 [Dimethyl(1H-imidazol-1-ylmethyl)(4-trifluoromethoxyphenyl)silane] | 0% | 0% | – | – | 90% | 100% | 100% | 50% | 90% | 0% | G | – | – | – | – |
| C[Si](C)(Cn1ccnc1)c1ccc(Oc2ccc(Cl)cc2)cc1 [[4-(4-Chlorophenoxy)phenyl]dimethyl(1H-imidazol-1-ylmethyl)silane] | 0% | 70% | 0% | – | 100% | 100% | 90% | 0% | 0% | 0% | – | – | 0 | – | – |
| C[Si](Cn1ccnc1)(c1ccc(Cl)cc1)c1ccc(Cl)cc1 [bis(4-Chlorophenyl)(1H-imidazol-1-ylmethyl)methylsilane] | 60% | 0% | – | 100% | 0% | 100% | 0% | 0% | 0% | 0% | – | – | – | – | – |
| C[Si](Cn1ccnc1)(c1ccc(F)cc1)c1ccc(F)cc1 [bis(4-Fluorophenyl)(1H-imidazol-1-ylmethyl)methylsilane] | 60% | 90% | – | – | 0% | 100% | 100% | 100% | 100% | 0% | – | – | 0 | – | – |
